The values below are quoted from earlier work in patent publication US7459223B2, “Electrochemical methods for generation of a biological proton motive force” (Board of Trustees of Michigan State University, priority 1998, dated 2008).

Like-named read-outs stand apart in the source and are kept apart here.

For this data set the following is noted: cited from earlier work.

`NC(=O)c1ccc[n+]([C@@H]2O[C@H](COP(=O)(O)OP(=O)(O)OC[C@H]3O[C@@H](n4cnc5c(N)ncnc54)[C@H](O)[C@@H]3O)[C@@H](O)[C@H]2O)c1` [NAD^+]: the “E0′ (redox potential)” value (Table 1, redox mediators) is given as −0.32 V.
As to Menaquinone, the “E0′ (redox potential)” value was −0.073 volt. Also, the “E0′ (redox potential)” value (Table 1, redox mediators) is given as −0.074 V.
